Laboratory results: the NIST ThermoML archive (doi:10.1021/je900597n)
“And” between values parts separate entries of the source, which are not always exact repeats. Identical values can stand only once.

Columns and labels:
[1] = 101 kPa, Liquid; for speed of sound: Pulse-echo method
[2] = xn = mol fraction of the nth substance listed; settings: 101 kPa, Liquid

CCCN [propan-1-amine]
[1]
Settings | mass density [kg/m3] | speed of sound [m/s]
288.15 K | 725.08 | 1266.1
293.15 K | 719.859 | 1242
298.15 K | 714.586 | 1218
303.15 K | 709.269 | 1194
308.15 K | 703.911 | 1169.9

COC(C)(C)C [2-methoxy-2-methylpropane] + CCCN
[2], x1 = 1
Settings | mass density [kg/m3] | speed of sound [m/s]
288.15 K | 747.273 | 1086.6
293.15 K | 742.072 | 1063.4
298.15 K | 736.826 | 1040.3
303.15 K | 731.532 | 1017.4
308.15 K | 726.185 | 994.68

COC(C)(C)C [2-methoxy-2-methylpropane]
[1]
Settings | mass density [kg/m3] | speed of sound
288.15 K | 747.273 | 1086.6 m/s and 1086.9 m/s
293.15 K | 742.072 | 1063.4 m/s
298.15 K | 736.826 | 1040.3 m/s
303.15 K | 731.532 | 1017.4 m/s
308.15 K | 726.185 | 994.68 m/s

COC(C)(C)C [2-methoxy-2-methylpropane] + CCCNCCC
[2], Pulse-echo method, x1 = 1
Settings | speed of sound [m/s]
288.15 K | 1086.9
293.15 K | 1063.4
298.15 K | 1040.3
303.15 K | 1017.4
308.15 K | 994.68

[2], x1 = 1
Settings | mass density [kg/m3]
288.15 K | 747.273
293.15 K | 742.072
298.15 K | 736.826
303.15 K | 731.532
308.15 K | 726.185

CCCN [propan-1-amine] + COC(C)(C)C
[2]
Settings | mass density, 288.15 K [kg/m3] | mass density, 293.15 K [kg/m3] | mass density, 298.15 K [kg/m3] | mass density, 303.15 K [kg/m3] | mass density, 308.15 K [kg/m3] | speed of sound, 288.15 K [m/s] | speed of sound, 293.15 K [m/s] | speed of sound, 298.15 K [m/s] | speed of sound, 303.15 K [m/s] | speed of sound, 308.15 K [m/s]
x2 = 0 | 725.08 | 719.859 | 714.586 | 709.269 | 703.911 | 1266.1 | 1242 | 1218 | 1194 | 1169.9
x2 = 0.0709 | 727.856 | 722.621 | 717.583 | 712.014 | 706.643 | 1251.4 | 1227.2 | 1203.1 | 1179.1 | 1155.3
x2 = 0.0971 | 729.03 | 723.784 | 718.729 | 713.152 | 707.762 | 1244 | 1220 | 1196 | 1172.2 | 1148.2
x2 = 0.2112 | 733 | 727.745 | 722.617 | 717.065 | 711.678 | 1214.4 | 1190.5 | 1166.5 | 1142.9 | 1119.1
x2 = 0.2915 | 734.914 | 729.567 | 724.408 | 718.869 | 713.452 | 1204.2 | 1180.3 | 1156.2 | 1132.6 | 1109
x2 = 0.3956 | 737.188 | 731.938 | 726.763 | 721.277 | 715.895 | 1174.4 | 1150.7 | 1127 | 1103.4 | 1079.8
x2 = 0.5551 | 740.109 | 734.863 | 729.642 | 724.214 | 718.801 | 1146 | 1122.5 | 1098.9 | 1075.4 | 1052.2
x2 = 0.7171 | 742.564 | 737.327 | 732.071 | 726.691 | 721.338 | 1120.6 | 1097.1 | 1073.7 | 1050.5 | 1027.3
x2 = 0.7747 | 743.456 | 738.22 | 732.941 | 727.578 | 722.269 | 1111.6 | 1088 | 1064.5 | 1041 | 1017.8
x2 = 0.8604 | 744.503 | 739.27 | 733.994 | 728.673 | 723.302 | 1101.2 | 1077.8 | 1054.2 | 1030.9 | 1007.5
x2 = 0.9268 | 745.6 | 740.382 | 735.117 | 729.806 | 724.452 | 1094.2 | 1070.7 | 1047.5 | 1024.2 | 1001.1

CCCNCCC [dipropylamine]
[1]
Settings | mass density [kg/m3] | speed of sound [m/s]
288.15 K | 745.064 | 1235.1
293.15 K | 740.501 | 1213.4
298.15 K | 735.924 | 1191.9
303.15 K | 731.333 | 1170.4
308.15 K | 726.732 | 1149
